From ChEMBL document CHEMBL3627635, “Synthesis and anti-proliferative activity of novel azazerumbone conjugates with chalcones” (Bioorg Med Chem Lett, 2015)
In brackets after ≈: the same amount, converted by molar mass.

Tested on: MCF7
Test: Antiproliferative activity against human MCF7 cells
Type: functional, cell-based

SMILES | IC50 [µg/mL]
C/C1=C\CC(C)(C)/C=C/C(=O)N(Cc2cn(CCOc3ccc(C(=O)/C=C/c4ccc(C(C)C)cc4)c(O)c3)nn2)/C(C)=C/CC1 | 0.93 (≈ 1.49 µM)
C/C1=C\CC(C)(C)/C=C/C(=O)N(CCCOc2ccc(C(=O)/C=C/c3ccc(C)cc3)cc2)/C(C)=C/CC1 | 1.21 (≈ 2.36 µM)
C/C1=C\CC(C)(C)/C=C/C(=O)N(Cc2cn(CCOc3ccc(C(=O)/C=C/c4ccc(C)cc4)c(O)c3)nn2)/C(C)=C/CC1 | 1.21 (≈ 2.03 µM)
COc1cccc(/C=C/C(=O)c2ccc(OCCn3cc(CN4C(=O)/C=C/C(C)(C)C/C=C(\C)CC/C=C/4C)nn3)cc2O)c1 | 1.12 (≈ 1.83 µM)
Cc1c2ccncc2c(C)c2c1[nH]c1ccccc12 [ELLIPTECINE] | 0.44 (≈ 1.79 µM)

Further lines, results first:

IC50 [µg/mL] | SMILES
2.85 (≈ 4.67 µM) | COc1ccc(/C=C/C(=O)c2ccc(OCCn3cc(CN4C(=O)/C=C/C(C)(C)C/C=C(\C)CC/C=C/4C)nn3)cc2O)cc1
9.67 (≈ 44.3 µM) | C/C1=C\CC(C)(C)/C=C/C(=O)/C(C)=C/CC1 [ZERUMBONE]
1.17 (≈ 1.92 µM) | COc1ccccc1/C=C/C(=O)c1ccc(OCCn2cc(CN3C(=O)/C=C/C(C)(C)C/C=C(\C)CC/C=C/3C)nn2)cc1O

Tested on: HepG2
Test: Antiproliferative activity against human HepG2 cells
Type: functional, cell-based

SMILES | IC50 [µg/mL]
C/C1=C\CC(C)(C)/C=C/C(=O)N(Cc2cn(CCOc3ccc(C(=O)/C=C/c4ccc(C(C)C)cc4)c(O)c3)nn2)/C(C)=C/CC1 | 0.84 (≈ 1.35 µM)
C/C1=C\CC(C)(C)/C=C/C(=O)N(CCCOc2ccc(C(=O)/C=C/c3ccc(C)cc3)cc2)/C(C)=C/CC1 | 1.53 (≈ 2.99 µM)
C/C1=C\CC(C)(C)/C=C/C(=O)N(Cc2cn(CCOc3ccc(C(=O)/C=C/c4ccc(C)cc4)c(O)c3)nn2)/C(C)=C/CC1 | 0.87 (≈ 1.46 µM)
COc1cccc(/C=C/C(=O)c2ccc(OCCn3cc(CN4C(=O)/C=C/C(C)(C)C/C=C(\C)CC/C=C/4C)nn3)cc2O)c1 | 1.01 (≈ 1.65 µM)
Cc1c2ccncc2c(C)c2c1[nH]c1ccccc12 [ELLIPTECINE] | 0.36 (≈ 1.46 µM)

Next, values leading:

IC50 [µg/mL] | SMILES
2.06 (≈ 3.37 µM) | COc1ccc(/C=C/C(=O)c2ccc(OCCn3cc(CN4C(=O)/C=C/C(C)(C)C/C=C(\C)CC/C=C/4C)nn3)cc2O)cc1
13.3 (≈ 61.1 µM) | C/C1=C\CC(C)(C)/C=C/C(=O)/C(C)=C/CC1 [ZERUMBONE]
1.71 (≈ 2.8 µM) | COc1ccccc1/C=C/C(=O)c1ccc(OCCn2cc(CN3C(=O)/C=C/C(C)(C)C/C=C(\C)CC/C=C/3C)nn2)cc1O

Tested on: P338
Test: Antiproliferative activity against mouse […] cells
Type: functional, cell-based

SMILES | IC50 [µg/mL]
C/C1=C\CC(C)(C)/C=C/C(=O)N(Cc2cn(CCOc3ccc(C(=O)/C=C/c4ccc(C(C)C)cc4)c(O)c3)nn2)/C(C)=C/CC1 | 1.39 (≈ 2.23 µM)
COc1ccc(/C=C/C(=O)c2ccc(OCCn3cc(CN4C(=O)/C=C/C(C)(C)C/C=C(\C)CC/C=C/4C)nn3)cc2O)cc1 | 1.21 (≈ 1.98 µM)
C/C1=C\CC(C)(C)/C=C/C(=O)/C(C)=C/CC1 [ZERUMBONE] | 2.63 (≈ 12 µM)
C/C1=C\CC(C)(C)/C=C/C(=O)N(CCCOc2ccc(C(=O)/C=C/c3ccc(C)cc3)cc2)/C(C)=C/CC1 | 1.29 (≈ 2.52 µM)
C/C1=C\CC(C)(C)/C=C/C(=O)N(Cc2cn(CCOc3ccc(C(=O)/C=C/c4ccc(C)cc4)c(O)c3)nn2)/C(C)=C/CC1 | 0.92 (≈ 1.55 µM)
COc1cccc(/C=C/C(=O)c2ccc(OCCn3cc(CN4C(=O)/C=C/C(C)(C)C/C=C(\C)CC/C=C/4C)nn3)cc2O)c1 | 0.89 (≈ 1.46 µM)
COc1ccccc1/C=C/C(=O)c1ccc(OCCn2cc(CN3C(=O)/C=C/C(C)(C)C/C=C(\C)CC/C=C/3C)nn2)cc1O | 1.1 (≈ 1.8 µM)
Cc1c2ccncc2c(C)c2c1[nH]c1ccccc12 [ELLIPTECINE] | 0.44 (≈ 1.79 µM)

Tested on: not listed separately
Test: Antiproliferative activity against human Lu cells
Type: functional, cell-based

SMILES | IC50 [µg/mL]
C/C1=C\CC(C)(C)/C=C/C(=O)N(Cc2cn(CCOc3ccc(C(=O)/C=C/c4ccc(C(C)C)cc4)c(O)c3)nn2)/C(C)=C/CC1 | 0.77 (≈ 1.24 µM)
COc1ccc(/C=C/C(=O)c2ccc(OCCn3cc(CN4C(=O)/C=C/C(C)(C)C/C=C(\C)CC/C=C/4C)nn3)cc2O)cc1 | 1.67 (≈ 2.73 µM)
C/C1=C\CC(C)(C)/C=C/C(=O)/C(C)=C/CC1 [ZERUMBONE] | 6.05 (≈ 27.7 µM)
C/C1=C\CC(C)(C)/C=C/C(=O)N(CCCOc2ccc(C(=O)/C=C/c3ccc(C)cc3)cc2)/C(C)=C/CC1 | 1.18 (≈ 2.31 µM)
C/C1=C\CC(C)(C)/C=C/C(=O)N(Cc2cn(CCOc3ccc(C(=O)/C=C/c4ccc(C)cc4)c(O)c3)nn2)/C(C)=C/CC1 | 0.91 (≈ 1.53 µM)
COc1cccc(/C=C/C(=O)c2ccc(OCCn3cc(CN4C(=O)/C=C/C(C)(C)C/C=C(\C)CC/C=C/4C)nn3)cc2O)c1 | 0.61 (≈ 0.999 µM)
COc1ccccc1/C=C/C(=O)c1ccc(OCCn2cc(CN3C(=O)/C=C/C(C)(C)C/C=C(\C)CC/C=C/3C)nn2)cc1O | 2.4 (≈ 3.93 µM)
Cc1c2ccncc2c(C)c2c1[nH]c1ccccc12 [ELLIPTECINE] | 0.63 (≈ 2.56 µM)

Tested on: HeLa
Test: Antiproliferative activity against human HeLa cells
Type: functional, cell-based

IC50 [µg/mL] | SMILES
2.5 (≈ 11.5 µM) | C/C1=C\CC(C)(C)/C=C/C(=O)/C(C)=C/CC1 [ZERUMBONE]

Tested on: SW480
Test: Antiproliferative activity against human SW480 cells
Type: functional, cell-based

SMILES | IC50 [µg/mL]
C/C1=C\CC(C)(C)/C=C/C(=O)N(Cc2cn(CCOc3ccc(C(=O)/C=C/c4ccc(C(C)C)cc4)c(O)c3)nn2)/C(C)=C/CC1 | 0.85 (≈ 1.36 µM)
C/C1=C\CC(C)(C)/C=C/C(=O)N(CCCOc2ccc(C(=O)/C=C/c3ccc(C)cc3)cc2)/C(C)=C/CC1 | 1.57 (≈ 3.07 µM)
C/C1=C\CC(C)(C)/C=C/C(=O)N(Cc2cn(CCOc3ccc(C(=O)/C=C/c4ccc(C)cc4)c(O)c3)nn2)/C(C)=C/CC1 | 1.16 (≈ 1.95 µM)
COc1cccc(/C=C/C(=O)c2ccc(OCCn3cc(CN4C(=O)/C=C/C(C)(C)C/C=C(\C)CC/C=C/4C)nn3)cc2O)c1 | 0.95 (≈ 1.56 µM)
Cc1c2ccncc2c(C)c2c1[nH]c1ccccc12 [ELLIPTECINE] | 0.38 (≈ 1.54 µM)

Results, then the compound that gave them:

IC50 [µg/mL] | SMILES
3.24 (≈ 5.3 µM) | COc1ccc(/C=C/C(=O)c2ccc(OCCn3cc(CN4C(=O)/C=C/C(C)(C)C/C=C(\C)CC/C=C/4C)nn3)cc2O)cc1
3.15 (≈ 14.4 µM) | C/C1=C\CC(C)(C)/C=C/C(=O)/C(C)=C/CC1 [ZERUMBONE]
0.9 (≈ 1.47 µM) | COc1ccccc1/C=C/C(=O)c1ccc(OCCn2cc(CN3C(=O)/C=C/C(C)(C)C/C=C(\C)CC/C=C/3C)nn2)cc1O
